{
  "source": "patent US20230003644A1",
  "about": "“PHOTONIC CHIP FOR MONITORING ACTIVITIES OF LIVING CELLS” (THE UNIVERSITY OF HONG KONG, priority 2021, published 2023)",
  "key": {"[1]": {"system": "human monocytic THP-1 cells", "test": "GaN chipscope monitoring of cell differentiation (cell area and roundness from images)", "assay_type": "cell-based", "conditions": "THP-1 monocyte to M0, PMA 25 ng/mL, 3-9 h after stimulation", "excerpt": "The cell refractive index is an intrinsic optical parameter that varies with different cell phenotypes. This inspired the exploration of whether the sensing platform could track online the dynamics of cell differentiation and distinguish the different cell phenotypes. In this experiment, human monocytic THP-1 cells are employed as the cell model due to their multi-phenotypic characteristics, including the initial suspended monocyte, adhered macrophage (M0), and two major polarized states (adhered M1 and M2). Here, THP-1 cells differentiated from suspended state (monocyte) to adhered M0 state by phorbol 12-myristate 13-acetate (PMA), followed by induction of the resultant M0 cells to polarize to M1 by LPS/FN-gamma. The process is monitored throughout by the GaN chipscope system (FIG. 10a).\nConsistent with the photocurrent signal, the imaging system recorded a fast cell rolling behavior in the initial 30 min before the cells settled down (FIG. 10b). PMA (25 ng/mL) is then loaded to trigger monocyte to macrophage differentiation. It is evident from the photocurrent signal that monocytes responded strongly against PMA in 3-9 h after stimulation, and this response became mild in the following 11 h (FIG. 10b).\nPhorbol-12-myristate-13-acetate (PMA, MCE, 25 ng/mL) was used to induce monocytes differentiation to M0 macrophages. […]"}, "[2]": {"system": "THP-1 cells", "test": "Flow cytometry of macrophage surface markers CD11b and CD80", "assay_type": "cell-based, human", "conditions": "THP-1 cells after incubation with PMA", "method": "Phorbol-12-myristate-13-acetate (PMA, MCE, 25 ng/mL) was used to induce monocytes differentiation to M0 macrophages. For further polarization, 100 ng/mL lipopolysaccharide (LPS, Thermo) and 20 ng/mL interferon-γ (IFN-γ, Thermo) were added to the culture to induce M1 generation. The cells were stimulated to M0 and M1 macrophages for 24 h. Flow cytometry and immunofluorescence staining were used to assess the expression of macrophage-specific cell surface marker: CD11 b for monocyte/macrophage differentiation and CD 80 for M1 macrophage polarization.\nThe harvested cells were washed with cold PBS and then the Fc receptor binding sites were blocked by incubating with Human TruStain FcX™ (422302, Biolegned) on ice for 20 min. The cells were then incubated with either FITC labeled CD 11 b (301329, Biolegend) or FITC labeled CD 80 (305206, Biolegend) in darkness for another 30 min. After centrifugation, the cells were washed twice with FACS buffer (PBS containing 2% BSA) and immediately measured by the flow cytometer Novoexpress (Agilent)."}, "[3]": {"system": "NIH 3T3 cells", "test": "Label-free monitoring of cell adhesion, morphology and intracellular dynamics on the LED/GaN chipscope (photocurrent and DIC imaging)", "assay_type": "cell-based", "excerpt": "As a monolithic integration design of the chip, the same shared sapphire substrate can realize the light coupling from the LED to the PD without any external optics, as shown in FIG. 5a. In particular, when the lights emitted from LED reached external media with a low RI (i.e., nmedia<nsapphire), total internal reflection occurred at the sapphire/media interface, causing some light to be reflected into the light-detecting region. The intensity of the reflected light is then detected by the PD. Since the critical angle enlarges as the refractive index increases, less light is reflected back to the PD, resulting in a decrease in the photocurrent. When the cells are in contact with the chip surface, the sensor provides a rapid photocurrent response due to the obvious RI change from sapphire-culture medium (1.78 to 1.337) to sapphire-cells (1.78 to 1.343-1.48). Furthermore, the formation of strong cell-substrate adhesion and/or the evolution of cell morphology could also result in changes in the recorded photocurrent.\nNIH 3T3 cells are used in the present study due to their rapid adhesion response and significant cell area changes during spreading. First performed a live/dead assay test to evaluate the potential phototoxicity of the chip to the cells. […] Next, after the chip was stabilized in the incubator at 37° C., the cell suspension was added into the chip chamber. […] Benefitting from the integrated mini-DIC imaging system, we can clearly capture the cell morphology changes in real-time. As shown in the top panel of FIG. 7b, the round cells gradually precipitated onto the chip surface in the first 30 min (step 1), and then started to extend in the next 4 h (step 2). After that, they continued to flatten and formed a dense monolayer sheet covering the entire chip surface (step 3). These observed cell morphology changes closely matched the optical response of the chip, indicating the successful integration of GaN chip-based sensing and DIC imaging units in our system for cellular activity monitoring. Additionally, to mimic the cell detachment process (step 4), we treated the cells with sodium dodecyl sulfate (SDS), a known surfactant that can detach and lyse adhering cells from culture dishes or flasks.\n• Cells (NIH 3T3, 0.3 million/mL, 500 uL, 37° C.) were seeded on the LED chip and transferred to the incubator (37° C.). Then the ammeter started to monitor the optical current at specific time points. The control experiment was performed by monitoring the solo cell culture medium with an identical chip (DMEM, 500 uL, 37° C.). • The bright-field images of cells were collected at specific time points to monitor the initial stage of cells adhesion and extension. The cells were cultured on sapphire, the substrate of which was identical with the top layer of LED chips.\n3T3 cells were grown on the chip surface for overnight and then were washed once and replaced with HEPES buffer (HBSS). After the system was restabilized, various concentrations of thrombin (MCE) were injected into the cell chamber. The signal dynamics were recorded by a meter."}, "[4]": {"system": "human lung adenocarcinoma cells (A549)", "test": "GaN chipscope drug screening: cytotoxicity of an anticancer drug on an A549 cell monolayer (photocurrent and imaging)", "assay_type": "cell-based", "conditions": "for decrease of cell confluence: after 24 h incubation", "method": "The A549 cells are seeded in the chamber of the platform and cultured for 24 h for fully spreading. Afterward, 10 μM, 30 μM or 50 μM of β-lapachone is added into the chambers, respectively.\nAdditionally, the photocurrent curves offered valuable practical information for the study of drug-cell interactions. First, by plotting the slope of the tangent line, the speed of cell response at different periods was analyzed. […] Indeed, a higher dose is more toxic and induces faster cell death. Thirdly, by coupling the imaging system, we were able to qualitatively and quantitatively analyze the cell-drug interactions. As shown in FIG. 9b-d, the cells shrank in a dose-dependent manner after β-lapachone treatment. Specifically, cells treated with a lower dose (10 μM) slowly shrank over time, but there is no obvious increase in intercellular spaces during the 24 h. […] It is believed that the increase in photocurrent in higher dose-treated cells is contributed by both cell morphology changes as well as by cell intracellular dynamics alternation. Further, the cell confluency is calculated based on the photos taken by the imaging system."}, "[5]": {"system": "human lung adenocarcinoma cells (A549)", "test": "GaN chipscope drug screening: cytotoxicity of an anticancer drug on an A549 cell monolayer (photocurrent and imaging)", "assay_type": "cell-based", "conditions": "A549, 5 hours of drug treatment"}, "[6]": {"system": "intracellular Ca2+", "test": "Living cell calcium tracking (Fluo-3 fluorescence)", "assay_type": "cell-based", "conditions": "low-dose thrombin (2 U/mL)", "method": "After the cells were grown on the confocal dish for 24 h, they were washed by PBS and cultured in living cell fluorescence imaging medium (Thermo) with the calcium indicator (Fluo-3, Invitrogen, […]) and pluronic F-127 (0.02%) in incubator for 1 h. They were then washed by fresh culture medium twice and incubated for a further 30 min to allow complete de-esterification of intracellular acetoxymethyl esters. The living cell fluorescent images were then captured by fluorescence microscope (Zeiss) with the frame rate of 1 side/min."}},
  "data": [
    {"compound": "CCCCCCCCCCCCCC(=O)O[C@@H]1[C@@H](C)[C@@]2(O)[C@@H](C=C(CO)C[C@]3(O)C(=O)C(C)=C[C@@H]23)[C@@H]2C(C)(C)[C@]12OC(C)=O", "note": "[PMA, phorbol 12-myristate 13-acetate]", "values": [
      {"measurement": "increase in cell spreading area", "setting": "[1]", "value": 137, "unit": "%"},
      {"measurement": "expression of CD11b", "setting": "[2]", "value": "significantly increased"}
    ]},
    {"compound": "CCCCCCCCCCCCOS(=O)(=O)[O-].[Na+]", "note": "[SDS, sodium dodecyl sulfate]", "values": [
      {"measurement": "rapid increase of photocurrent signal after addition", "setting": "[3]; 3T3 monolayer, cell detachment step", "value": 4.24, "unit": "%"},
      {"measurement": "detachment of cell monolayer from chip surface", "setting": "[3]; 3T3 monolayer, within a few seconds of loading", "value": "completely detached"}
    ]},
    {"compound": "Cc1ccc2c(c1)C(=O)C1(O)CCN(c3ccccc3)C1=N2", "note": "(centres unmarked) [blebbistatin]", "values": [
      {"measurement": "cell morphology after treatment (imaging)", "setting": "[3]; 3T3 cells, 50 μM, next 1 h, increased cell gaps and dendritic morphologies", "value": "gradually shrank"},
      {"measurement": "increase of relative optical current compared to the control group", "setting": "[3]; 3T3 cells, blebbistatin 50 μM, treated for 50 min", "value": 1.02, "unit": "%"}
    ]},
    {"compound": "CC1(C)CCC2=C(O1)c1ccccc1C(=O)C2=O", "note": "[β-lapachone]", "values": [
      {"measurement": "reaction time of the cells from photocurrent curve", "setting": "[4]; A549, 10 μM", "value": 20.2, "unit": "h"},
      {"measurement": "reaction time of the cells from photocurrent curve", "setting": "[4]; A549, 30 μM", "value": 11.6, "unit": "h"},
      {"measurement": "reaction time of the cells from photocurrent curve", "setting": "[4]; A549, 50 μM", "value": 12.5, "unit": "h"},
      {"measurement": "cytotoxicity in A549 cells (photocurrent increase with drug concentration)", "setting": "[4]; A549, 10, 30, 50 μM", "value": "dose-depend cytotoxicity"},
      {"measurement": "speed of cell response (slope of photocurrent curve) at 50 μM relative to 10 μM", "setting": "[4]; A549, first 5 h of stimulation", "value": 6.05, "unit": "times"},
      {"measurement": "speed of cell response (slope of photocurrent curve) at 50 μM relative to 30 μM", "setting": "[4]; A549, first 5 h of stimulation", "value": 2.85, "unit": "times"},
      {"measurement": "decrease of cell confluence", "setting": "[4]; A549, high dose (50 μM)", "value": 23.1, "unit": "%"},
      {"measurement": "decrease of cell confluence", "setting": "[4]; A549, low dose (10 μM)", "value": 0, "unit": "%"},
      {"measurement": "decrease of cell confluence", "setting": "[4]; A549, medium dose (30 μM)", "value": 19.0, "unit": "%"},
      {"measurement": "photocurrent response monitored by the LED sensor during drug treatment", "setting": "[5]", "value": "gradually increased"}
    ]},
    {"compound": "thrombin", "values": [
      {"measurement": "time at which photocurrent reached a plateau", "setting": "[3]; 3T3 monolayer, thrombin 150 U/mL", "value": 50, "unit": "min"},
      {"measurement": "maximal change (increase) of photocurrent", "setting": "[3]; 3T3 monolayer, thrombin high dose 150 U/mL", "value": 1.66, "unit": "%"},
      {"measurement": "decrease of photocurrent signal", "setting": "[3]; 3T3 monolayer, thrombin low dose 2 U/mL, first 10 min, returned to initial level in next 30 min", "value": 0.94, "unit": "%"},
      {"measurement": "calcium fluorescence response of living cells", "setting": "[6]", "value": "biphasic cell response"}
    ]}
  ]
}
